Tests used:
[1] = system: soybean; assay: Test C preemergence; assay type: in vivo, Glycine max
Summary of the method: (§1)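 Plants were kept under greenhouse conditions for 13–15 days following spray. Pre-emergent application went to soil (loam–sand), post-emergent to foliage at 1–4 leaves. Evaluation: visual, percent control against untreated checks.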

[2] = system: velvetleaf; assay: Test C postemergence; assay type: in vivo, Abutilon theophrasti; details: for Velvetleaf plant response rating: 31 g ai/ha
Summary of the method: as §1

[3] = system: waterhemp; assay: Test C preemergence; assay type: in vivo, Amaranthus rudis
Summary of the method: as §1

[4] = system: johnsongrass; assay: Test C preemergence; assay type: in vivo, Sorghum halepense
Summary of the method: as §1

[5] = system: oilseed rape; assay: Test C postemergence; assay type: in vivo, Brassica napus; details: for Oilseed Rape plant response rating: 31 g ai/ha
Summary of the method: as §1

[6] = system: chickweed; assay: Test C postemergence; assay type: in vivo, Stellaria media
Summary of the method: as §1

[7] = system: velvetleaf; assay: Test A preemergence; assay type: in vivo, Abutilon theophrasti; details: for Velvetleaf plant response rating (0 to 100 scale): 125 g ai/ha
Summary of the method: (§2)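 Greenhouse pot test, loam/sand soil. Formulation: non-phytotoxic solvent mix plus surfactant. Pre: directed spray onto soil after sowing. Post: plants at 1–2 leaf, 2–10 cm. Rated visually vs untreated controls at ~10 d, 0 (no effect) to 100 (complete control).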

[8] = system: barnyardgrass; assay: Test A postemergence; assay type: in vivo, Echinochloa crus-galli; details: 0 to 100 scale where 0 is no effect and 100 is complete control
Summary of the method: as §2

[9] = system: sedge, umbrella; assay: Test B flooded paddy test; assay type: in vivo, Cyperus difformis; details: Flood, 250 g ai/ha, 0 to 100 scale where 0 is no effect and 100 is complete control
Summary of the method: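 Evaluation is visual, against untreated controls, 13 to 15 days after treatment. Before treatment, plants reached the 2-leaf stage; pots were then flooded 3 cm deep, compound was added to the water, and that level was maintained. Ratings run 0 to 100, with 100 meaning complete control.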

[10] = system: oilseed rape; assay: Test C preemergence; assay type: in vivo, Brassica napus
Summary of the method: as §1

[11] = 16 g ai/ha, preemergence, scale 0 to 100 (0 no effect, 100 complete control)
[12] = 62 g ai/ha, preemergence, scale 0 (no effect) to 100 (complete control)
[13] = 125 g ai/ha, preemergence, scale 0 (no effect) to 100 (complete control)
[14] = 16 g ai/ha, postemergence, 0 is no effect, 100 is complete control
[15] = postemergence, visual rating, scale 0 to 100 (0 no effect, 100 complete control), 13 to 15 days
[16] = 125 g ai/ha, postemergence, visual rating, scale 0 to 100 (0 no effect, 100 complete control)
[17] = Postemergence, 62 g ai/ha, scale 0 to 100 (0 no effect, 100 complete control)
[18] = 31 g ai/ha, postemergence, visual rating, scale 0 to 100 (0 no effect, 100 complete control), 13 to 15 days
[19] = 500 g ai/ha, 0 to 100 scale where 0 is no effect and 100 is complete control
[20] = 250 g ai/ha, preemergence, scale 0 (no effect) to 100 (complete control)
[21] = Preemergence, 62 g ai/ha, scale 0 to 100, 0 no effect, 100 complete control
[22] = Postemergence, 62 g ai/ha, scale 0 to 100 (0 no effect, 100 complete control), 13 to 15 days

FC(F)(F)c1cnn(-c2c(Cl)cccc2Oc2ncc(Cl)cn2)c1 [Compound 167]
Soybean plant response rating [1, 11]: 10 | Soybean plant response rating [1, 12]: 90 | Soybean plant response rating [1, 13]: 90 | Plant response rating (0 to 100), Velvetleaf [2, 14]: 35 | Velvetleaf plant response rating [2, 15]: 40 | Plant response rating, Velvetleaf [2, 16]: 70 | Plant response rating, Velvetleaf [2, 17]: 40 | Waterhemp plant response rating [3, 11]: 100 | Waterhemp plant response rating [3, 12]: 100 | Waterhemp plant response rating [3, 13]: 100 | Johnsongrass plant response rating [4, 11]: 5 | Johnsongrass plant response rating [4, 12]: 80 | Johnsongrass plant response rating [4, 13]: 95 | Plant response rating (0 to 100), Oilseed Rape [5, 14]: 15 | Oilseed Rape plant response rating [5, 15]: 50 | Plant response rating, Oilseed Rape [5, 16]: 70 | Plant response rating, Oilseed Rape [5, 17]: 85 | Plant response rating (0 to 100), Chickweed [6, 14]: 55 | Chickweed plant response rating [6, 18]: 80 | Plant response rating, Chickweed [6, 16]: 80 | Plant response rating, Chickweed [6, 17]: 70 | Velvetleaf plant response rating (0 to 100 scale) [7]: 80 | Velvetleaf plant response rating [7, 19]: 100 | Barnyardgrass plant response rating ([8]; 125 g ai/ha): 70 | Plant response rating, Barnyardgrass ([8]; 500 g ai/ha): 100 | Plant response rating, Sedge, Umbrella [9]: 98 | Oilseed Rape plant response rating [10, 11]: 80 | Oilseed Rape plant response rating [10, 12]: 90 | Oilseed Rape plant response rating [10, 13]: 98

FC(F)c1cccc(Oc2ncc(Cl)cn2)c1-n1cc(Br)cn1 [Compound 194, 2-[2-(4-bromo-1H-pyrazol-1-yl)-3-(difluoromethyl)phenoxy]-5-chloropyrimidine]
plant injury at 125 g/ha ([1]; Glycine max, pre-emergence, 125 g ai/ha, preemergence, scale 0 (no effect) to 100 (complete control), read-out: Soybean plant response rating): 25% | plant injury at 250 g/ha ([1]; Glycine max, pre-emergence, 250 g ai/ha, preemergence, scale 0 (no effect) to 100 (complete control), read-out: Soybean plant response rating): 45% | plant injury at 62 g/ha ([1]; Glycine max, pre-emergence, Preemergence, 62 g ai/ha, scale 0 to 100, 0 no effect, 100 complete control, read-out: Plant response rating, Soybean): 20% | Velvetleaf plant response rating [2, 15]: 40 | pest or weed control at 125 g/ha ([2]; Abutilon theophrasti, post-emergence, 125 g ai/ha, postemergence, visual rating, scale 0 to 100 (0 no effect, 100 complete control), read-out: Plant response rating, Velvetleaf): 70% | pest or weed control at 250 g/ha ([2]; Abutilon theophrasti, post-emergence, 250 g ai/ha, postemergence, read-out: Plant response rating (0 to 100), Velvetleaf): 75% | pest or weed control at 62 g/ha ([2]; Abutilon theophrasti, post-emergence, Postemergence, 62 g ai/ha, scale 0 to 100 (0 no effect, 100 complete control), 13 to 15 days, read-out: Plant response rating, Velvetleaf): 45% | pest or weed control at 125 g/ha ([3]; Amaranthus tuberculatus, pre-emergence, 125 g ai/ha, preemergence, scale 0 (no effect) to 100 (complete control), read-out: Waterhemp plant response rating): 100% | pest or weed control at 250 g/ha ([3]; Amaranthus tuberculatus, pre-emergence, 250 g ai/ha, preemergence, scale 0 (no effect) to 100 (complete control), read-out: Waterhemp plant response rating): 100% | pest or weed control at 62 g/ha ([3]; Amaranthus tuberculatus, pre-emergence, Preemergence, 62 g ai/ha, scale 0 to 100, 0 no effect, 100 complete control, read-out: Plant response rating, Waterhemp): 100% | pest or weed control at 125 g/ha ([4]; Sorghum halepense, pre-emergence, 125 g ai/ha, preemergence, scale 0 (no effect) to 100 (complete control), read-out: Johnsongrass plant response rating): 80% | pest or weed control at 250 g/ha ([4]; Sorghum halepense, pre-emergence, 250 g ai/ha, preemergence, scale 0 (no effect) to 100 (complete control), read-out: Johnsongrass plant response rating): 95% | pest or weed control at 62 g/ha ([4]; Sorghum halepense, pre-emergence, Preemergence, 62 g ai/ha, scale 0 to 100, 0 no effect, 100 complete control, read-out: Plant response rating, Johnsongrass): 25% | Oilseed Rape plant response rating [5, 15]: 30 | plant injury at 125 g/ha ([5]; Brassica napus, post-emergence, 125 g ai/ha, postemergence, visual rating, scale 0 to 100 (0 no effect, 100 complete control), read-out: Plant response rating, Oilseed Rape): 85% | plant injury at 250 g/ha ([5]; Brassica napus, post-emergence, 250 g ai/ha, postemergence, read-out: Plant response rating (0 to 100), Oilseed Rape): 90% | plant injury at 62 g/ha ([5]; Brassica napus, post-emergence, Postemergence, 62 g ai/ha, scale 0 to 100 (0 no effect, 100 complete control), 13 to 15 days, read-out: Plant response rating, Oilseed Rape): 40% | pest or weed control at 31 g/ha ([6]; Stellaria media, post-emergence, 31 g ai/ha, postemergence, visual rating, scale 0 to 100 (0 no effect, 100 complete control), 13 to 15 days, read-out: Chickweed plant response rating): 50% | pest or weed control at 125 g/ha ([6]; Stellaria media, post-emergence, 125 g ai/ha, postemergence, visual rating, scale 0 to 100 (0 no effect, 100 complete control), read-out: Plant response rating, Chickweed): 70% | pest or weed control at 250 g/ha ([6]; Stellaria media, post-emergence, 250 g ai/ha, postemergence, read-out: Plant response rating (0 to 100), Chickweed): 85% | pest or weed control at 62 g/ha ([6]; Stellaria media, post-emergence, Postemergence, 62 g ai/ha, scale 0 to 100 (0 no effect, 100 complete control), 13 to 15 days, read-out: Plant response rating, Chickweed): 70% | Velvetleaf plant response rating (0 to 100 scale) [7]: 80 | pest or weed control at 500 g/ha ([7]; Abutilon theophrasti, pre-emergence, 240 h, 500 g ai/ha, 0 to 100 scale where 0 is no effect and 100 is complete control, read-out: Velvetleaf plant response rating): 100% | pest or weed control at 125 g/ha ([8]; Echinochloa crus-galli, post-emergence, 240 h, 125 g ai/ha, read-out: Barnyardgrass plant response rating): 80% | pest or weed control at 500 g/ha ([8]; Echinochloa crus-galli, post-emergence, 240 h, 500 g ai/ha, read-out: Plant response rating, Barnyardgrass): 90% | pest or weed control at 250 g/ha ([9]; Cyperus difformis, read-out: Plant response rating, Sedge, Umbrella): 95% | plant injury at 125 g/ha ([10]; Brassica napus, pre-emergence, 125 g ai/ha, preemergence, scale 0 (no effect) to 100 (complete control), read-out: Oilseed Rape plant response rating): 90% | plant injury at 250 g/ha ([10]; Brassica napus, pre-emergence, 250 g ai/ha, preemergence, scale 0 (no effect) to 100 (complete control), read-out: Oilseed Rape plant response rating): 100% | plant injury at 62 g/ha ([10]; Brassica napus, pre-emergence, Preemergence, 62 g ai/ha, scale 0 to 100, 0 no effect, 100 complete control, read-out: Plant response rating, Oilseed Rape): 30%

N#Cc1cccc(Oc2ncc(Cl)cn2)c1-n1cc(I)cn1 [Compound 204]
Soybean plant response rating [1, 13]: 65 | Soybean plant response rating [1, 20]: 80 | Plant response rating, Soybean [1, 21]: 35 | Velvetleaf plant response rating [2, 15]: 35 | Plant response rating, Velvetleaf [2, 16]: 60 | Plant response rating (0 to 100), Velvetleaf ([2]; 250 g ai/ha, postemergence): 70 | Plant response rating, Velvetleaf [2, 22]: 40 | Waterhemp plant response rating [3, 13]: 100 | Waterhemp plant response rating [3, 20]: 98 | Plant response rating, Waterhemp [3, 21]: 100 | Johnsongrass plant response rating [4, 13]: 95 | Johnsongrass plant response rating [4, 20]: 98 | Plant response rating, Johnsongrass [4, 21]: 80 | Oilseed Rape plant response rating [5, 15]: 40 | Plant response rating, Oilseed Rape [5, 16]: 85 | Plant response rating (0 to 100), Oilseed Rape ([5]; 250 g ai/ha, postemergence): 75 | Plant response rating, Oilseed Rape [5, 22]: 70 | Chickweed plant response rating [6, 18]: 75 | Plant response rating, Chickweed [6, 16]: 98 | Plant response rating (0 to 100), Chickweed ([6]; 250 g ai/ha, postemergence): 100 | Plant response rating, Chickweed [6, 22]: 95 | Velvetleaf plant response rating (0 to 100 scale) [7]: 80 | Velvetleaf plant response rating [7, 19]: 100 | Barnyardgrass plant response rating ([8]; 125 g ai/ha): 80 | Plant response rating, Barnyardgrass ([8]; 500 g ai/ha): 90 | Plant response rating, Sedge, Umbrella [9]: 90 | Oilseed Rape plant response rating [10, 13]: 98 | Oilseed Rape plant response rating [10, 20]: 100 | Plant response rating, Oilseed Rape [10, 21]: 95

N#Cc1cnn(-c2c(Oc3ncc(Cl)cn3)cccc2C(F)F)c1 [Compound 236]
Soybean plant response rating [1, 11]: 35 | Soybean plant response rating [1, 13]: 95 | Plant response rating, Soybean [1, 21]: 90 | Plant response rating (0 to 100), Velvetleaf [2, 14]: 55 | Velvetleaf plant response rating [2, 15]: 65 | Plant response rating, Velvetleaf [2, 16]: 80 | Plant response rating, Velvetleaf [2, 22]: 85 | Waterhemp plant response rating [3, 11]: 98 | Waterhemp plant response rating [3, 13]: 100 | Plant response rating, Waterhemp [3, 21]: 98 | Johnsongrass plant response rating [4, 11]: 5 | Johnsongrass plant response rating [4, 13]: 85 | Plant response rating, Johnsongrass [4, 21]: 60 | Plant response rating (0 to 100), Oilseed Rape [5, 14]: 30 | Oilseed Rape plant response rating [5, 15]: 10 | Plant response rating, Oilseed Rape [5, 16]: 65 | Plant response rating, Oilseed Rape [5, 22]: 30 | Plant response rating (0 to 100), Chickweed [6, 14]: 40 | Chickweed plant response rating [6, 18]: 50 | Plant response rating, Chickweed [6, 16]: 50 | Plant response rating, Chickweed [6, 22]: 65 | Velvetleaf plant response rating (0 to 100 scale) [7]: 100 | Velvetleaf plant response rating [7, 19]: 100 | Barnyardgrass plant response rating ([8]; 125 g ai/ha): 100 | Plant response rating, Barnyardgrass ([8]; 500 g ai/ha): 100 | Plant response rating, Sedge, Umbrella [9]: 100 | Oilseed Rape plant response rating [10, 11]: 80 | Oilseed Rape plant response rating [10, 13]: 100 | Plant response rating, Oilseed Rape [10, 21]: 100
